{"source": "patent US12146004B2", "about": "“Polymyxin compounds and uses thereof” (priority 2014, dated 2024)", "format_in_all_cases": "cell-based", "key": {"Klebsiella pneumoniae": {"test_system": "Klebsiella pneumoniae", "procedure,_shortened": "(§1)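 Susceptibility testing covered up to nine strains of each Gram-negative pathogen, among them resistant strains and strains with elevated MICs to Polymyxin. Values are MICs in μg/mL.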"}, "Pseudomonas aeruginosa": {"test_system": "Pseudomonas aeruginosa", "procedure,_shortened": "as §1"}, "Acinetobacter baumannii": {"test_system": "Acinetobacter baumannii", "procedure,_shortened": "as §1"}, "Escherichia coli": {"test_system": "Escherichia coli", "procedure,_shortened": "as §1"}}, "note": "Bridge positions count the residues as written; N and C are the ends. Square brackets hold non-standard residues; d marks the D form. Peptide text beside a SMILES is read from it. * marks the point of attachment. X14 = CC(C)c1ccc(CO[C@@H](CCN)C(=O)*)cc1; X10 = NC[C@H](OCc1ccc(Cl)cc1)C(=O)*; X26 = NCC[C@H](OCC1CCCCC1)C(=O)*; dCha = N[C@H](CC1CCCCC1)C(=O)O; X15 = NCCC(CC1CCCC1)C(=O)*; X19 = NCCC(C(=O)*)C1CCCCC1; Dab = NCC[C@H](N)C(=O)O; Dap = NC[C@H](N)C(=O)O"}
{"smiles": "CC(C)C[C@@H]1NC(=O)[C@@H](CC2CCCCC2)NC(=O)[C@H](CCN)NC(=O)[C@@H](NC(=O)[C@H](CN)NC(=O)[C@@H](NC(=O)[C@H](CN)OCc2ccc(Cl)cc2)[C@@H](C)O)CCNC(=O)[C@H]([C@@H](C)O)NC(=O)[C@H](CCN)NC(=O)[C@H](CCN)NC1=O", "note": "[Example 81, (S)-3-amino-2-((4-chlorobenzyl)oxy) propanoyl L-Thr-L-Dap-polymyxin [D-cyclohexylalanine-6]heptapeptide] (X10-T[Dap][Dab][Dab][dCha]L[Dab][Dab]T; lactam 3-C)", "values": [{"measurement": "MIC K. pneumoniae 063", "setting": "Klebsiella pneumoniae", "value": 16, "unit": "µg/mL"}, {"measurement": "MIC K. pneumoniae 065", "setting": "Klebsiella pneumoniae", "value": 4, "unit": "µg/mL"}, {"measurement": "MIC K. pneumoniae ATCC 4352", "setting": "Klebsiella pneumoniae", "value": 0.25, "unit": "µg/mL"}, {"measurement": "MIC K. pneumoniae ATCC 13882", "setting": "Klebsiella pneumoniae", "value": 0.125, "unit": "µg/mL"}, {"measurement": "MIC P. aeruginosa 068", "setting": "Pseudomonas aeruginosa", "value": 2, "unit": "µg/mL"}, {"measurement": "MIC P. aeruginosa 070", "setting": "Pseudomonas aeruginosa", "value": 2, "unit": "µg/mL"}, {"measurement": "MIC P. aeruginosa ATCC 27853", "setting": "Pseudomonas aeruginosa", "value": 0.125, "unit": "µg/mL"}, {"measurement": "MIC P. aeruginosa CCUG 59347", "setting": "Pseudomonas aeruginosa", "value": 0.25, "unit": "µg/mL"}, {"measurement": "MIC A. baumanii 053", "setting": "Acinetobacter baumannii", "value": 32, "unit": "µg/mL"}, {"measurement": "MIC A. baumanii 056", "setting": "Acinetobacter baumannii", "value": 8, "unit": "µg/mL"}, {"measurement": "MIC A. baumanii ATCC BAA-747", "setting": "Acinetobacter baumannii", "value": 0.125, "unit": "µg/mL"}, {"measurement": "MIC A. baumanii NCTC 13424", "setting": "Acinetobacter baumannii", "value": 0.125, "unit": "µg/mL"}, {"measurement": "MIC E. coli 058", "setting": "Escherichia coli", "value": 1, "unit": "µg/mL"}, {"measurement": "MIC E. coli 061", "setting": "Escherichia coli", "value": 16, "unit": "µg/mL"}, {"measurement": "MIC E. coli ATCC 25922", "setting": "Escherichia coli", "value": 0.125, "unit": "µg/mL"}, {"measurement": "MIC E. coli NCTC 9001", "setting": "Escherichia coli", "value": 0.03, "unit": "µg/mL"}]}
{"smiles": "CC(C)C[C@@H]1NC(=O)[C@@H](CC2CCCCC2)NC(=O)[C@H](CCN)NC(=O)[C@@H](NC(=O)[C@H](CCN)NC(=O)[C@@H](NC(=O)C(CCN)CC2CCCC2)[C@@H](C)O)CCNC(=O)[C@H]([C@@H](C)O)NC(=O)[C@H](CCN)NC(=O)[C@H](CCN)NC1=O", "note": "(stereo partly drawn) [Example 83, 4-amino-2-(cyclopentylmethyl) butanoyl polymyxin [D-cyclohexylalanine-6]nonapeptide] (X15-T[Dab][Dab][Dab][dCha]L[Dab][Dab]T; lactam 3-C)", "values": [{"measurement": "MIC K. pneumoniae 063", "setting": "Klebsiella pneumoniae", "value": 16, "unit": "µg/mL"}, {"measurement": "MIC K. pneumoniae 065", "setting": "Klebsiella pneumoniae", "value": 1, "unit": "µg/mL"}, {"measurement": "MIC K. pneumoniae ATCC 13882", "setting": "Klebsiella pneumoniae", "value": 0.25, "unit": "µg/mL"}, {"measurement": "MIC P. aeruginosa 068", "setting": "Pseudomonas aeruginosa", "value": 2, "unit": "µg/mL"}, {"measurement": "MIC P. aeruginosa 070", "setting": "Pseudomonas aeruginosa", "value": 8, "unit": "µg/mL"}, {"measurement": "MIC P. aeruginosa ATCC 27853", "setting": "Pseudomonas aeruginosa", "value": 0.25, "unit": "µg/mL"}, {"measurement": "MIC P. aeruginosa CCUG 59347", "setting": "Pseudomonas aeruginosa", "value": 0.25, "unit": "µg/mL"}, {"measurement": "MIC A. baumanii 053", "setting": "Acinetobacter baumannii", "value": ">64", "unit": "µg/mL"}, {"measurement": "MIC A. baumanii 056", "setting": "Acinetobacter baumannii", "value": 64, "unit": "µg/mL"}, {"measurement": "MIC A. baumanii ATCC BAA-747", "setting": "Acinetobacter baumannii", "value": 0.125, "unit": "µg/mL"}, {"measurement": "MIC A. baumanii NCTC 13424", "setting": "Acinetobacter baumannii", "value": 0.06, "unit": "µg/mL"}, {"measurement": "MIC E. coli 058", "setting": "Escherichia coli", "value": 4, "unit": "µg/mL"}, {"measurement": "MIC E. coli 061", "setting": "Escherichia coli", "value": 16, "unit": "µg/mL"}, {"measurement": "MIC E. coli ATCC 25922", "setting": "Escherichia coli", "value": 0.5, "unit": "µg/mL"}, {"measurement": "MIC E. coli NCTC 9001", "setting": "Escherichia coli", "value": 0.06, "unit": "µg/mL"}]}
{"smiles": "CC(C)C[C@@H]1NC(=O)[C@@H](CC2CCCCC2)NC(=O)[C@H](CCN)NC(=O)[C@@H](NC(=O)[C@H](CN)NC(=O)[C@@H](NC(=O)[C@H](CCN)OCC2CCCCC2)[C@@H](C)O)CCNC(=O)[C@H]([C@@H](C)O)NC(=O)[C@H](CCN)NC(=O)[C@H](CCN)NC1=O", "note": "[Example 84, (S)-4-amino-2-(cyclohexyl-methoxy) butanoyl L-Thr-L-Dap-polymyxin [D-cyclohexylalanine-6]heptapeptide.] (X26-T[Dap][Dab][Dab][dCha]L[Dab][Dab]T; lactam 3-C)", "values": [{"measurement": "MIC K. pneumoniae 063", "setting": "Klebsiella pneumoniae", "value": 32, "unit": "µg/mL"}, {"measurement": "MIC K. pneumoniae 065", "setting": "Klebsiella pneumoniae", "value": 4, "unit": "µg/mL"}, {"measurement": "MIC K. pneumoniae ATCC 13882", "setting": "Klebsiella pneumoniae", "value": 0.25, "unit": "µg/mL"}, {"measurement": "MIC P. aeruginosa 070", "setting": "Pseudomonas aeruginosa", "value": 8, "unit": "µg/mL"}, {"measurement": "MIC P. aeruginosa ATCC 27853", "setting": "Pseudomonas aeruginosa", "value": 0.25, "unit": "µg/mL"}, {"measurement": "MIC P. aeruginosa CCUG 59347", "setting": "Pseudomonas aeruginosa", "value": 0.5, "unit": "µg/mL"}, {"measurement": "MIC A. baumanii 053", "setting": "Acinetobacter baumannii", "value": ">32", "unit": "µg/mL"}, {"measurement": "MIC A. baumanii 056", "setting": "Acinetobacter baumannii", "value": 32, "unit": "µg/mL"}, {"measurement": "MIC A. baumanii ATCC BAA-747", "setting": "Acinetobacter baumannii", "value": 0.25, "unit": "µg/mL"}, {"measurement": "MIC A. baumanii NCTC 13424", "setting": "Acinetobacter baumannii", "value": 0.25, "unit": "µg/mL"}, {"measurement": "MIC E. coli 058", "setting": "Escherichia coli", "value": 8, "unit": "µg/mL"}, {"measurement": "MIC E. coli 061", "setting": "Escherichia coli", "value": 8, "unit": "µg/mL"}, {"measurement": "MIC E. coli ATCC 25922", "setting": "Escherichia coli", "value": 0.125, "unit": "µg/mL"}]}
{"smiles": "CC(C)C[C@@H]1NC(=O)[C@@H](CC2CCCCC2)NC(=O)[C@H](CCN)NC(=O)[C@@H](NC(=O)[C@H](CN)NC(=O)[C@@H](NC(=O)C(CCN)C2CCCCC2)[C@@H](C)O)CCNC(=O)[C@H]([C@@H](C)O)NC(=O)[C@H](CCN)NC(=O)[C@H](CCN)NC1=O", "note": "(stereo partly drawn) [Example 85, 4-amino-2-cyclohexylbutanoyl L-Thr-L-Dap-polymyxin [D-cyclohexylalanine-6]heptapeptide.] (X19-T[Dap][Dab][Dab][dCha]L[Dab][Dab]T; lactam 3-C)", "values": [{"measurement": "MIC K. pneumoniae 063", "setting": "Klebsiella pneumoniae", "value": 8, "unit": "µg/mL"}, {"measurement": "MIC K. pneumoniae 065", "setting": "Klebsiella pneumoniae", "value": 0.5, "unit": "µg/mL"}, {"measurement": "MIC K. pneumoniae ATCC 13882", "setting": "Klebsiella pneumoniae", "value": 0.5, "unit": "µg/mL"}, {"measurement": "MIC P. aeruginosa 068", "setting": "Pseudomonas aeruginosa", "value": 2, "unit": "µg/mL"}, {"measurement": "MIC P. aeruginosa 070", "setting": "Pseudomonas aeruginosa", "value": 4, "unit": "µg/mL"}, {"measurement": "MIC P. aeruginosa ATCC 27853", "setting": "Pseudomonas aeruginosa", "value": 0.5, "unit": "µg/mL"}, {"measurement": "MIC P. aeruginosa CCUG 59347", "setting": "Pseudomonas aeruginosa", "value": 0.5, "unit": "µg/mL"}, {"measurement": "MIC A. baumanii 053", "setting": "Acinetobacter baumannii", "value": 64, "unit": "µg/mL"}, {"measurement": "MIC A. baumanii 056", "setting": "Acinetobacter baumannii", "value": 64, "unit": "µg/mL"}, {"measurement": "MIC A. baumanii ATCC BAA-747", "setting": "Acinetobacter baumannii", "value": 0.125, "unit": "µg/mL"}, {"measurement": "MIC A. baumanii NCTC 13424", "setting": "Acinetobacter baumannii", "value": 0.125, "unit": "µg/mL"}, {"measurement": "MIC E. coli 058", "setting": "Escherichia coli", "value": 4, "unit": "µg/mL"}, {"measurement": "MIC E. coli 061", "setting": "Escherichia coli", "value": 16, "unit": "µg/mL"}, {"measurement": "MIC E. coli ATCC 25922", "setting": "Escherichia coli", "value": 0.125, "unit": "µg/mL"}, {"measurement": "MIC E. coli NCTC 9001", "setting": "Escherichia coli", "value": 0.06, "unit": "µg/mL"}]}
{"smiles": "CC(C)C[C@@H]1NC(=O)[C@@H](CC2CCCCC2)NC(=O)[C@H](CCN)NC(=O)[C@@H](NC(=O)[C@H](CN)NC(=O)[C@@H](NC(=O)[C@H](CCN)OCc2ccc(C(C)C)cc2)[C@@H](C)O)CCNC(=O)[C@H]([C@@H](C)O)NC(=O)[C@H](CCN)NC(=O)[C@H](CCN)NC1=O", "note": "[Example 88, (S)-4-amino-2-((4-isopropylbenzyl)oxy)butanoyl L-Thr-L-Dap-polymyxin [D-cyclohexylalanine-6]heptapeptide] (X14-T[Dap][Dab][Dab][dCha]L[Dab][Dab]T; lactam 3-C)", "values": [{"measurement": "MIC K. pneumoniae 063", "setting": "Klebsiella pneumoniae", "value": 64, "unit": "µg/mL"}, {"measurement": "MIC K. pneumoniae 065", "setting": "Klebsiella pneumoniae", "value": 0.5, "unit": "µg/mL"}, {"measurement": "MIC K. pneumoniae ATCC 13882", "setting": "Klebsiella pneumoniae", "value": 0.25, "unit": "µg/mL"}, {"measurement": "MIC P. aeruginosa 068", "setting": "Pseudomonas aeruginosa", "value": 4, "unit": "µg/mL"}, {"measurement": "MIC P. aeruginosa 070", "setting": "Pseudomonas aeruginosa", "value": 4, "unit": "µg/mL"}, {"measurement": "MIC P. aeruginosa ATCC 27853", "setting": "Pseudomonas aeruginosa", "value": 0.25, "unit": "µg/mL"}, {"measurement": "MIC P. aeruginosa CCUG 59347", "setting": "Pseudomonas aeruginosa", "value": 0.5, "unit": "µg/mL"}, {"measurement": "MIC A. baumanii 053", "setting": "Acinetobacter baumannii", "value": 64, "unit": "µg/mL"}, {"measurement": "MIC A. baumanii 056", "setting": "Acinetobacter baumannii", "value": 32, "unit": "µg/mL"}, {"measurement": "MIC A. baumanii ATCC BAA-747", "setting": "Acinetobacter baumannii", "value": 0.25, "unit": "µg/mL"}, {"measurement": "MIC A. baumanii NCTC 13424", "setting": "Acinetobacter baumannii", "value": 0.125, "unit": "µg/mL"}, {"measurement": "MIC E. coli 058", "setting": "Escherichia coli", "value": 2, "unit": "µg/mL"}, {"measurement": "MIC E. coli 061", "setting": "Escherichia coli", "value": 16, "unit": "µg/mL"}, {"measurement": "MIC E. coli ATCC 25922", "setting": "Escherichia coli", "value": 0.25, "unit": "µg/mL"}, {"measurement": "MIC E. coli NCTC 9001", "setting": "Escherichia coli", "value": 0.25, "unit": "µg/mL"}]}
